According to patent US20260272869A1, “ORAL COMPOSITION COMPRISING L-THEANINE” (NICOVENTURES TRADING LIMITED, priority 2023, published 2026):

Tested on: blood-brain barrier
Assay: Enhancement of blood-brain barrier permeation of P-glycoprotein substrate compounds by piperine
Conditions: P-glycoprotein substrate compound combined with piperine

| SMILES | Permeation across the blood-brain barrier / bioavailability when combined with piperine |
| --- | --- |
| CC(/C=C/C=C(\C)C(=O)O)=C\C=C\C=C(C)\C=C\C=C(/C)C(=O)O [crocetin] | enhanced |
| CC(/C=C/C=C(\C)C(=O)O[C@@H]1O[C@H](CO[C@@H]2O[C@H](CO)[C@@H](O)[C@H](O)[C@H]2O)[C@@H](O)[C@H](O)[C@H]1O)=C\C=C\C=C(C)\C=C\C=C(/C)C(=O)O[C@@H]1O[C@H](CO[C@@H]2O[C@H](CO)[C@@H](O)[C@H](O)[C@H]2O)[C@@H](O)[C@H](O)[C@H]1O [crocin] | enhanced |
| CC1=C(C)C(=O)O[C@@H]([C@](C)(O)[C@H]2CC[C@H]3[C@@H]4[C@@H]5O[C@@H]5[C@@]5(O)CC=CC(=O)[C@]5(C)[C@H]4CC[C@]23C)C1 [withanolide A] | enhanced |
| CC1=C(C)C(=O)O[C@@H]([C@@H](C)[C@@]2(O)CC[C@H]3[C@@H]4[C@@H]5O[C@@H]5[C@@]5(O)CC=CC(=O)[C@]5(C)[C@H]4CC[C@@]32C)C1 [withanone] | enhanced |
